System: 379773-124-R-J2-PDC complex spheroids, viability % test/control
Test: Anticancer human tumor 379773-124-R-J2-PDC patient-derived endometrial carcinoma cell line growth inhibition [CLK]
Conditions: for IC50: curve of first compound; for viability, T/C: stronger effect = lower value
Description: A high-throughput screen of multi-cell type tumor spheroids was designed to identify active combinations of […] and targeted small molecules. Complex spheroids include a stromal component modeled by human endothelial cells (HUVEC) and fibroblasts modeled by human mesenchymal stem cells (MSCs). The concentration ranges selected for each drug and investigational agent were based upon clinically achievable concentrations if the clinical Cmax of the agent was known.
Compounds. The drugs and investigational agents: cirtuvivint (SM08502; NSC835563), CC-671 (NSC850746), vemurafenib (NSC761431), tapotoclax (NSC804041), sotorasib (NSC818433), adagrasib (NSC831453), MRTX-1133 (NSC836407), BAY2416964 (NSC825713), copanlisib (NSC816437), inavolisib (NSC800729), abemaciclib (NSC768073), osimertinib (NSC779217), entinostat (NSC756642), eltanexor (KPT-8602, NSC794443), venetoclax (NSC766270), ceralasertib (NSC777638), bortezomib (NSC756655), olaparib (NSC753686), talazoparib (NSC767125), alisertib (NSC759677), peposertib (NSC802822), gemcitabine (NSC613327), 5-fluorouracil (NSC19893), SN-38 (NSC673596), oxaliplatin (NSC266046), paclitaxel (NSC125973), and doxorubicin (NSC123127), were obtained from the National Cancer Institute (NCI) Developmental Therapeutics Program Chemical Repository. The FDA-approved anticancer drug set is available from the Developmental Therapeutics Program at https://dtp.cancer.gov/organization/dscb/obtaining/available plates.htm. […] The stock solutions were prepared in dimethyl sulfoxide (DMSO, Sigma-Aldrich, St. Louis, MO, cat. D2650), except for the platinum complexes which were prepared in saline (Quality Biological, Gaithersburg, MD, cat. 114-055-101), at 800-fold the tested concentration and stored at -70 degrees C prior to their use. All drugs and investigational agents were tested over a range starting from a high concentration at or near the clinical Cmax and decreasing in half-log increments. If the clinical Cmax for an agent had not been determined, the highest concentration tested was 10 microM.
Cell Culture. All cells were maintained in an incubator at 37 degrees C and 5% CO2 with 95% humidity. The PDC lines were cultured according to standard operating procedures established by the NCI PDMR. Briefly, all PDCs were thawed and cultured in Matrigel-coated flasks prepared with a working solution of 1X Ham's F-12 nutrient mix, without supplementation (Invitrogen, Waltham, MA, cat. 11765054), 100 U/mL penicillin-streptomycin (Invitrogen, cat. 15140122), and 2.5% Matrigel (Corning Inc., Corning, NY, cat. 354248) for the first three passages. The 947758-054-R-J2-PDC line was cultured in 6B/Colon 1A media, which includes advanced DMEM/F-12 (Thermo Fisher Scientific, cat. 12634028), 10 mM HEPES (Thermo Fisher Scientific, cat. 15630080), 1X GlutaMAX supplement (Thermo Fisher Scientific, cat. 35050061), 0.1 mg/mL primocin (InvivoGen, cat. ant-pm-2), 10% defined fetal bovine serum, heat inactivated (HyClone Laboratories Inc., cat. SH30070.03HI), 1.25 mM N-Acetyl-L-cysteine (Sigma-Aldrich, cat. A9165), 10 mM nicotinamide (Sigma-Aldrich, cat. N0636), 1X B-27 supplement (Thermo Fisher Scientific, cat. 17504044), 1X N-2 supplement (Thermo Fisher Scientific, cat. 17502048), and 10 microM Y-27632 dihydrochloride (Tocris Bioscience, cat. 1254). The 876862-298-R-J1-PDC was cultured in 6E media, which includes all 6B/Colon 1A media components plus 50% L-WRN conditioned media (ATCC, cat. CRL-3276), 50 ng/mL recombinant human EGF recombinant protein (hEGF; Thermo Fisher Scientific, cat. PHG0311), 10 ng/mL recombinant human fibroblast growth factor 10 (hGFG-10; PeproTech, cat. 100-26), 1 ng/mL recombinant human fibroblast growth factor 2 (hFGF-2; PeproTech, cat. 100-18B), and 1 µM prostaglandin E2 (PGE2; Tocris, cat. 2296). The 227483-062-R1-J1-PDC line was cultured in Panc media, containing all 6E components except hFGF-2, with the addition of 500 nM SB-431542 (Selleckchem, cat. S1067) and 10 nM gastrin (Tocris, cat. 3006). […]
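Note: compound exposure lasted seven days before the viability readout.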
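Throughout, for viability, T/C: 100% = DMSO vehicle control wells.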

SMILES: C=C(F)C(=O)N1CCN(c2nc(OCC3CCCN3C)nc3c2CCN(c2cccc4cccc(Cl)c24)C3)CC1CC#N (configuration not stated) + CN1CCN(c2cc(C(=O)Nc3cc4cc(-c5cnn(C)c5)ccc4cn3)ccn2)CC1
- IC50 (second compound 0.0316 µM): 4620 nM
- IC50 (second compound 0.1 µM): 2700 nM
- IC50 (second compound 0.316 µM): < 31.6 nM
- IC50 (second compound 1 µM): < 31.6 nM
- IC50 (second compound 3.16 µM): < 31.6 nM
- IC50 (second compound 10 µM): < 31.6 nM
- viability, T/C (second compound 0.0316 µM, first compound 0.0316 µM): 87.9%
- viability, T/C (second compound 0.0316 µM, first compound 0.1 µM): 86%
- viability, T/C (second compound 0.0316 µM, first compound 0.316 µM): 86%
- viability, T/C (second compound 0.0316 µM, first compound 1 µM): 88.7%
- viability, T/C (second compound 0.0316 µM, first compound 3.16 µM): 73.9%
- viability, T/C (second compound 0.0316 µM, first compound 10 µM): 1.28%
- viability, T/C (second compound 0.1 µM, first compound 0.0316 µM): 85.8%
- viability, T/C (second compound 0.1 µM, first compound 0.1 µM): 72.8%
- viability, T/C (second compound 0.1 µM, first compound 0.316 µM): 90.9%
- viability, T/C (second compound 0.1 µM, first compound 1 µM): 79.5%
- viability, T/C (second compound 0.1 µM, first compound 3.16 µM): 45.3%
- viability, T/C (second compound 0.1 µM, first compound 10 µM): 1%
- viability, T/C (second compound 0.316 µM, first compound 0.0316 µM): 28.3%
- viability, T/C (second compound 0.316 µM, first compound 0.1 µM): 36.7%
- viability, T/C (second compound 0.316 µM, first compound 0.316 µM): 31.8%
- viability, T/C (second compound 0.316 µM, first compound 1 µM): 37.5%
- viability, T/C (second compound 0.316 µM, first compound 3.16 µM): 13.6%
- viability, T/C (second compound 0.316 µM, first compound 10 µM): 0.93%
- viability, T/C (second compound 1 µM, first compound 0.0316 µM): 0.49%
- viability, T/C (second compound 1 µM, first compound 0.1 µM): 0.17%
- viability, T/C (second compound 1 µM, first compound 0.316 µM): 0.3%
- viability, T/C (second compound 1 µM, first compound 1 µM): 1.49%
- viability, T/C (second compound 1 µM, first compound 3.16 µM): 0.88%
- viability, T/C (second compound 1 µM, first compound 10 µM): 0.75%
- viability, T/C (second compound 3.16 µM, first compound 0.0316 µM): 1.35%
- viability, T/C (second compound 3.16 µM, first compound 0.1 µM): 0.14%
- viability, T/C (second compound 3.16 µM, first compound 0.316 µM): 2.05%
- viability, T/C (second compound 3.16 µM, first compound 1 µM): 0.84%
- viability, T/C (second compound 3.16 µM, first compound 3.16 µM): 1.24%
- viability, T/C (second compound 3.16 µM, first compound 10 µM): 0.11%
- viability, T/C (second compound 10 µM, first compound 0.0316 µM): 0.66%
- viability, T/C (second compound 10 µM, first compound 0.1 µM): 1.65%
- viability, T/C (second compound 10 µM, first compound 0.316 µM): 0.21%
- viability, T/C (second compound 10 µM, first compound 1 µM): 0.22%
- viability, T/C (second compound 10 µM, first compound 3.16 µM): 0.2%
- viability, T/C (second compound 10 µM, first compound 10 µM): 0.65%

Source: PubChem BioAssay AID2060604 (Molecular Pharmacology Branch, DTP, NCI, 2025)
